Where “and” joins values, the source holds several entries; their conditions need not be identical. Equal values may be shown once.
Tested on: 883617-216-R-J1-PDC complex spheroids, growth, % test/control
Assay: Anticancer human tumor 883617-216-R-J1-PDC patient-derived bladder carcinoma cell line growth inhibition [AhR]
Conditions: for viability, T/C: stronger effect = lower value; active = viability on the fitted dose curve at most 10% of control; inactive = the rest
Text: Multicellular complex tumor spheroid response to aryl hydrocarbon receptor antagonists in combination with a variety of drugs and investigational agents in selected tumor cell lines
The current study was undertaken to assess response to aryl hydrocarbon receptor antagonists in combination with standard-of-care drugs and investigational agents in solid tumor complex spheroid models. Complex spheroids include a stromal component modeled by human endothelial cells (HUVEC) and fibroblasts modeled by human mesenchymal stem cells (MSCs). The concentration ranges selected for each drug and investigational agent were based upon clinically achievable concentrations if the clinical Cmax of the agent was known.
Compounds. The drugs and investigational agents: BAY 2416964 (NSC825713), GNF351 (NSC835774), CH-223191 (NSC835775), CPI-455 (NSC825282), aza-TdCyd (NSC777586), decitabine (NSC127716), belinostat (NSC758774), entinostat (NSC756642), pevonedistat (NSC761192), tazemetostat (NSC777109), talazoparib (NSC765396), olaparib (NSC753686), selinexor (NSC780203), nedisertib (M3814, NSC802822), bortezomib (NSC756655), venetoclax (NSC766270), doxorubicin (NSC123127), elimusertib (BAY189344, NSC800525), ceralasertib (AZD6738, NSC777638), TAK-243 (NSC785004), alisertib (NSC759677), etoposide (NSC141540), topotecan (NSC609699), eribulin (NSC707389), gemcitabine (NSC613327), carboplatin (NSC241240), cisplatin (NSC119875), and SN-38 (NSC673596) were obtained from the National Cancer Institute (NCI) Developmental Therapeutics Program Chemical Repository (32). The FDA-approved anticancer drug set is available from the Developmental Therapeutics Program at https://dtp.cancer.gov/organization/dscb/obtaining/available plates.htm. […] The stock solutions were prepared in dimethyl sulfoxide (DMSO, Sigma-Aldrich, St. Louis, MO, cat. D2650), except for the platinum compounds which were prepared in saline (Quality Biological, Gaithersburg, MD, cat. 114-055-101), at 800-fold the tested concentration and stored at -70 degrees C prior to their use. All drugs and investigational agents were tested over a range starting from a high concentration at or near the clinical Cmax and decreasing in half-log increments. If the clinical Cmax for an agent had not been determined, the highest concentration tested was 10 microM (Table 1).
Cell Culture. All cells were maintained in an incubator at 37 degrees C and 5% CO2 with 95% humidity. The PDC lines were cultured according to standard operating procedures established by the NCI PDMR (https://pdmr.cancer.gov). Briefly, all PDCs were thawed and cultured in Matrigel-coated flasks prepared with a working solution of 1X Ham's F-12 nutrient mix, without supplementation (Invitrogen, Waltham, MA, cat. 11765054), 100 U/mL penicillin-streptomycin (Invitrogen, cat. 15140122), and 2.5% Matrigel (Corning Inc., Corning, NY, cat. 354248) for the first three passages. All PDCs were cultured in complete DMEM/F-12 media containing advanced DMEM/F-12 (Invitrogen, cat. 12634028), 4.9% defined fetal bovine serum, heat inactivated (HyClone Laboratories Inc., Logan, UT, cat. SH30070.03HI), 389 ng/mL hydrocortisone (Sigma-Aldrich, cat. H4001), 9.7 ng/mL human EGF recombinant protein (Invitrogen, cat. PHG0313), 23.4 microg/mL adenine (Sigma-Aldrich, cat. A2786), 97.3 U/mL penicillin-streptomycin (Invitrogen, cat. 15140122), 1.9 mM L-glutamine (Invitrogen, cat. 25030081), and 9.7 microM Y-27632 dihydrochloride (Tocris Bioscience, Bristol, United Kingdom, cat. 1254). The PDCs were cultured in complete DMEM/F12 media without 10 microM Y-27632 dihydrochloride for at least two passages prior to the screen. The established cell lines NCI-H1341 and […] were cultured in DMEM/F-12, HEPES (Invitrogen, cat. 11330032), 5% defined fetal bovine serum (HyClone Laboratories Inc., cat. SH30070.03), ITS premix universal culture supplement [insulin (5 microg/mL), transferrin (5 microg/mL), and selenious acid (5 ng/mL)] […]

[1] = curve of first compound, second compound 0.1 µM
[2] = curve of first compound, second compound 0.316 µM
[3] = curve of first compound, second compound 1 µM
[4] = curve of first compound, second compound 3.16 µM
[5] = curve of first compound, second compound 10 µM
[6] = second compound 0.1 µM, first compound 0.0316 µM
[7] = second compound 0.1 µM, first compound 0.1 µM
[8] = second compound 0.316 µM, first compound 0.0316 µM
[9] = second compound 0.316 µM, first compound 0.1 µM
[10] = second compound 1 µM, first compound 0.0316 µM
[11] = second compound 1 µM, first compound 0.1 µM
[12] = second compound 3.16 µM, first compound 0.0316 µM
[13] = second compound 3.16 µM, first compound 0.1 µM
[14] = second compound 10 µM, first compound 0.0316 µM
[15] = second compound 10 µM, first compound 0.1 µM
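Note: exposure lasted 7 days after dosing on day 3 of spheroid growth.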

NS(=O)(=O)OCC1CC(n2ccc3c(NC4CCc5ccccc54)ncnc32)CC1O (stereo unspecified) + Cc1cncc(-c2nc(NCCc3c[nH]c4ccccc34)c3ncn(C(C)C)c3n2)c1
inactive: viability, T/C [6] 118% | viability, T/C [7] 165% | viability, T/C (second compound 0.1 µM, first compound 0.316 µM) 209% | viability, T/C (second compound 0.1 µM, first compound 1 µM) 131% | viability, T/C (second compound 0.1 µM, first compound 3.16 µM) 43.6% | viability, T/C (second compound 0.1 µM, first compound 10 µM) 29.1% | viability, T/C [8] 128% | viability, T/C [9] 164% | viability, T/C (second compound 0.316 µM, first compound 0.316 µM) 225% | viability, T/C (second compound 0.316 µM, first compound 1 µM) 120% | viability, T/C (second compound 0.316 µM, first compound 3.16 µM) 44.5% | viability, T/C (second compound 0.316 µM, first compound 10 µM) 25.9% | viability, T/C [10] 141% | viability, T/C [11] 167% | viability, T/C (second compound 1 µM, first compound 0.316 µM) 212% | viability, T/C (second compound 1 µM, first compound 1 µM) 130% | viability, T/C (second compound 1 µM, first compound 3.16 µM) 48% | viability, T/C (second compound 1 µM, first compound 10 µM) 30.1% | viability, T/C [12] 141% | viability, T/C [13] 179% | viability, T/C (second compound 3.16 µM, first compound 0.316 µM) 204% | viability, T/C (second compound 3.16 µM, first compound 1 µM) 112% | viability, T/C (second compound 3.16 µM, first compound 3.16 µM) 33.2% | viability, T/C (second compound 3.16 µM, first compound 10 µM) 15.4% | viability, T/C [14] 48.1% | viability, T/C [15] 50.6% | viability, T/C (second compound 10 µM, first compound 0.316 µM) 28.6%
2260 nM: IC50 [4]
active: viability, T/C (second compound 10 µM, first compound 1 µM) 6.98% | viability, T/C (second compound 10 µM, first compound 3.16 µM) 4.81% | viability, T/C (second compound 10 µM, first compound 10 µM) 2.51%
2990 nM: IC50 [2]
< 31.6 nM: IC50 [5]
2750 nM: IC50 [1]
2790 nM: IC50 [3]

Nc1ncn(C2CC(O)C(CO)O2)c(=O)n1 (stereo unspecified)
inactive: viability, T/C (compound 0.00316 µM) 88.2% and 94.6% and 84.1% | viability, T/C (compound 0.01 µM) 93.2% and 102% and 118% | viability, T/C (compound 0.0316 µM) 94.7% and 90.6% and 73.1% | viability, T/C (compound 0.1 µM) 89.7% and 97% and 93.9% | viability, T/C (compound 0.316 µM) 85.9% and 82.2% and 113% | viability, T/C (compound 1 µM) 76.2% and 75.2% and 94.4%
> 1000 nM: IC50 (curve of compound)

CC[C@@]1(O)C(=O)OCc2c1cc1n(c2=O)Cc2cc3c(CN(C)C)c(O)ccc3nc2-1 + Cc1cncc(-c2nc(NCCc3c[nH]c4ccccc34)c3ncn(C(C)C)c3n2)c1
inactive: viability, T/C (second compound 0.1 µM, first compound 0.000316 µM) 76.2% | viability, T/C (second compound 0.1 µM, first compound 0.001 µM) 75.1% | viability, T/C (second compound 0.1 µM, first compound 0.00316 µM) 79.8% | viability, T/C (second compound 0.1 µM, first compound 0.01 µM) 71% | viability, T/C [6] 69.8% | viability, T/C [7] 74.3% | viability, T/C (second compound 0.316 µM, first compound 0.000316 µM) 86.3% | viability, T/C (second compound 0.316 µM, first compound 0.001 µM) 80.7% | viability, T/C (second compound 0.316 µM, first compound 0.00316 µM) 74.3% | viability, T/C (second compound 0.316 µM, first compound 0.01 µM) 79.4% | viability, T/C [8] 68.1% | viability, T/C [9] 64.7% | viability, T/C (second compound 1 µM, first compound 0.000316 µM) 93.5% | viability, T/C (second compound 1 µM, first compound 0.001 µM) 93.9% | viability, T/C (second compound 1 µM, first compound 0.00316 µM) 83.9% | viability, T/C (second compound 1 µM, first compound 0.01 µM) 85.6% | viability, T/C [10] 88.9% | viability, T/C [11] 76.7% | viability, T/C (second compound 3.16 µM, first compound 0.000316 µM) 96.6% | viability, T/C (second compound 3.16 µM, first compound 0.001 µM) 84.6% | viability, T/C (second compound 3.16 µM, first compound 0.00316 µM) 89.7% | viability, T/C (second compound 3.16 µM, first compound 0.01 µM) 91.9% | viability, T/C [12] 84.6% | viability, T/C [13] 73.1% | viability, T/C (second compound 10 µM, first compound 0.000316 µM) 45.7% | viability, T/C (second compound 10 µM, first compound 0.001 µM) 47.8% | viability, T/C (second compound 10 µM, first compound 0.00316 µM) 47.9% | viability, T/C (second compound 10 µM, first compound 0.01 µM) 46.8% | viability, T/C [14] 35.4% | viability, T/C [15] 32.1%
< 0.316 nM: IC50 [5]
> 100 nM: IC50 [1] | IC50 [2] | IC50 [3] | IC50 [4]

Cc1ccccc1N=Nc1ccc(NC(=O)c2ccnn2C)c(C)c1
> 10000 nM: IC50 (compound alone, run of 06/14/2022)
inactive: viability, T/C (compound 0.1 µM) 90.3% [middle of 20 runs] | viability, T/C (compound 0.316 µM) 84.6% [middle of 20 runs] | viability, T/C (compound 1 µM) 84.5% [middle of 19 runs] | viability, T/C (compound 3.16 µM) 77% [middle of 20 runs] | viability, T/C (compound 10 µM) 77% [middle of 21 runs]

CCc1c2c(nc3ccc(O)cc13)-c1cc3c(c(=O)n1C2)COC(=O)[C@]3(O)CC
inactive: viability, T/C (compound 0.000949 µM) 88.9% and 98.2% and 69% | viability, T/C (compound 0.003 µM) 82.4% and 85.1% and 111% | viability, T/C (compound 0.00949 µM) 72.4% and 70.3% and 75.6% | viability, T/C (compound 0.03 µM) 79.9% and 64.4% and 83.5% | viability, T/C (compound 0.0949 µM) 68.2% and 57.1% and 75.1% | viability, T/C (compound 0.3 µM) 44.6% and 41% and 84.5%
234 nM and 137 nM and > 300 nM: IC50 (curve of compound)

CC(C)CC(NC(=O)C(Cc1ccccc1)NC(=O)c1cnccn1)B(O)O (stereo unspecified)
inactive: viability, T/C (compound 0.000949 µM) 97.1% and 98.4% and 72.1% | viability, T/C (compound 0.003 µM) 105% and 94.3% and 10.1%
active: viability, T/C (compound 0.03 µM) 0.36% and 0.18% and 1.33% | viability, T/C (compound 0.0949 µM) 0.25% and 0.13% and 2.71% | viability, T/C (compound 0.3 µM) 0.36% and 0.19% and 3.19%
7.45 nM and 7.16 nM and 1.43 nM: IC50 (curve of compound)

From PubChem BioAssay AID1919004 (Molecular Pharmacology Branch, DTP, NCI, 2023)
